Experimental data reported in patent US6495683B2, “4-oxo-4,7-dihydro-thieno[2,3-b]pyridine-5-carboxamides as antiviral agents” (Pharmacia and Upjohn Company, priority 1999, dated 2002).
Counter-ions that a name gives are not always drawn.

Assays:
HSV polymerase = HSV polymerase (Human herpesvirus 1, UniProt P04293); test: biochemical; settings: read-out: polymerase IC50 (μM) HSV
HCMV polymerase = target: T1, HCMV polymerase (Human cytomegalovirus, UniProt P08546); test: biochemical; settings: modified SPA assay: compounds diluted in 100% DMSO, 4.5 mM DTT in polymerase buffer; read-out: polymerase IC50 (μM) HCMV
T1 construct: made in house; host or cells: recombinant baculovirus-infected SF-9 cells
Description: The HCMV polymerase assay is performed using a scintillation proximity assay (SPA) as described in several references, such as N. D. Cook, et al., Pharmaceutical Manufacturing International, pages 49-53 (1992); K. Takeuchi, Laboratory Practice, September issue (1992); U.S. Pat. No. 4,568,649 (1986); which are incorporated by reference herein. Reactions are performed in 96-well plates. The assay is conducted in 100 μl volume with 5.4 mM HEPE (pH 7.5), 11.7 mM KCl, 4.5 mM MgCl2, 0.36 mg/ml BSA, and 90 nM ^3H-dTTP. Assays are run with and without CHAPS, (3-[(3-cholamidopropyl)-dimethylammonio]-1-propane-sulfonate) at a final concentration of 2 mM. HCMV polymerase is diluted in enzyme dilution buffer containing 50% glycerol, 250 mM NaCl, 10 mM HEPES (pH 7.5), 100 μg/ml BSA, and 0.01% sodium azide. The HCMV polymerase, which is expressed in recombinant baculovirus-infected SF-9 cells and purified according to literature procedures, is added at 10% (or 10 μl) of the final reaction volume, i.e., 100 μl. Compounds are diluted in 50% DMSO and 10 μl are added to each well. Control wells contain an equivalent concentration of DMSO. Unless noted otherwise, reactions are initiated via the addition of 6 nM biotinylated poly(dA)-oligo(dT) template/primer to reaction mixtures containing the enzyme, substrate, and compounds of interest. Plates are incubated in a 25 C or 37 C H2O bath and terminated via the addition of 40 μl/reaction of 0.5 M EDTA (pH 8) per well. Reactions are terminated within the time-frame during which substrate incorporation is linear and varied depending upon the enzyme and conditions used, i.e., 30 min. for HCMV polymerase. Ten μl of streptavidin-SPA beads (20 mg/ml in PBS/10% glycerol) are added following termination of the reaction. Plates are incubated 10 min. at 37 ° C., then equilibrated to room temperature, and counted on a Packard Topcount. Linear regressions are performed and IC50's are calculated using computer software.
A modified version of the above HCMV polymerase assay is performed as described above, but with the following changes: Compounds are diluted in 100% DMSO until final dilution into assay buffer. In the previous assay, compounds are diluted in 50% DMSO. 4.5 mM dithiothreotol (DTT) is added to the polymerase buffer.

VZV polymerase = VZV polymerase (Varicella-zoster virus, UniProt P09252); test: biochemical; settings: read-out: polymerase IC50 (μM) VZV
Chain of VZV polymerase (P09252 whole entry): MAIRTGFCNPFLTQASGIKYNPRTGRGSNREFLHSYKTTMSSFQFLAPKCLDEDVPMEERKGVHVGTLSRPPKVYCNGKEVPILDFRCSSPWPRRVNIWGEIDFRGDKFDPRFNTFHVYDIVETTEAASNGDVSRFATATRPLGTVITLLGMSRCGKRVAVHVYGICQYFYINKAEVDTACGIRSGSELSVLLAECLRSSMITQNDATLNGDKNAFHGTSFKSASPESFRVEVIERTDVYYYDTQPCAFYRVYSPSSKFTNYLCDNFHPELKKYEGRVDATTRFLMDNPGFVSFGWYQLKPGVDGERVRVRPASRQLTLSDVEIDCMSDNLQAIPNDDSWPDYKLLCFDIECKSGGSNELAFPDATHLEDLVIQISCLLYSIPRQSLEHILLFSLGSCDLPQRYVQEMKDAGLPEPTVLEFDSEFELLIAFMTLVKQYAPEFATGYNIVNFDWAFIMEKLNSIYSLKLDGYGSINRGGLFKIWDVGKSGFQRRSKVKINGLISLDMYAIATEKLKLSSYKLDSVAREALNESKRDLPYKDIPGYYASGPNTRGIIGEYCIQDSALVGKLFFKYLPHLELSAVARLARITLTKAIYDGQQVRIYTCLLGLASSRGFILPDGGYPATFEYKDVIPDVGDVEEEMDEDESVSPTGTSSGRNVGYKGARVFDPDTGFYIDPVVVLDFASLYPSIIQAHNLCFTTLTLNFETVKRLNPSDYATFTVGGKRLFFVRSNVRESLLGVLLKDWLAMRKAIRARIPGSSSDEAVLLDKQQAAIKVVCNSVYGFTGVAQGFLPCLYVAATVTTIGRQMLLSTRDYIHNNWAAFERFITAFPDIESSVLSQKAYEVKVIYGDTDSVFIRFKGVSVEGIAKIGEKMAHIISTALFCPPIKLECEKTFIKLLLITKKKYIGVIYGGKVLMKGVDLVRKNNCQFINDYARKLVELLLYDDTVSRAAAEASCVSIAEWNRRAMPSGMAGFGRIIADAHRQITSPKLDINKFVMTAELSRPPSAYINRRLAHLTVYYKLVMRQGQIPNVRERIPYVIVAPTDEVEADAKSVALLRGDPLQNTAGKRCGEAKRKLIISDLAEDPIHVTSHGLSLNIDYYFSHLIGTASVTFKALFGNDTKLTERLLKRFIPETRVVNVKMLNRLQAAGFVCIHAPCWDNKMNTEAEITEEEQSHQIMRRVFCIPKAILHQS

Chain of HSV polymerase (P04293 whole entry): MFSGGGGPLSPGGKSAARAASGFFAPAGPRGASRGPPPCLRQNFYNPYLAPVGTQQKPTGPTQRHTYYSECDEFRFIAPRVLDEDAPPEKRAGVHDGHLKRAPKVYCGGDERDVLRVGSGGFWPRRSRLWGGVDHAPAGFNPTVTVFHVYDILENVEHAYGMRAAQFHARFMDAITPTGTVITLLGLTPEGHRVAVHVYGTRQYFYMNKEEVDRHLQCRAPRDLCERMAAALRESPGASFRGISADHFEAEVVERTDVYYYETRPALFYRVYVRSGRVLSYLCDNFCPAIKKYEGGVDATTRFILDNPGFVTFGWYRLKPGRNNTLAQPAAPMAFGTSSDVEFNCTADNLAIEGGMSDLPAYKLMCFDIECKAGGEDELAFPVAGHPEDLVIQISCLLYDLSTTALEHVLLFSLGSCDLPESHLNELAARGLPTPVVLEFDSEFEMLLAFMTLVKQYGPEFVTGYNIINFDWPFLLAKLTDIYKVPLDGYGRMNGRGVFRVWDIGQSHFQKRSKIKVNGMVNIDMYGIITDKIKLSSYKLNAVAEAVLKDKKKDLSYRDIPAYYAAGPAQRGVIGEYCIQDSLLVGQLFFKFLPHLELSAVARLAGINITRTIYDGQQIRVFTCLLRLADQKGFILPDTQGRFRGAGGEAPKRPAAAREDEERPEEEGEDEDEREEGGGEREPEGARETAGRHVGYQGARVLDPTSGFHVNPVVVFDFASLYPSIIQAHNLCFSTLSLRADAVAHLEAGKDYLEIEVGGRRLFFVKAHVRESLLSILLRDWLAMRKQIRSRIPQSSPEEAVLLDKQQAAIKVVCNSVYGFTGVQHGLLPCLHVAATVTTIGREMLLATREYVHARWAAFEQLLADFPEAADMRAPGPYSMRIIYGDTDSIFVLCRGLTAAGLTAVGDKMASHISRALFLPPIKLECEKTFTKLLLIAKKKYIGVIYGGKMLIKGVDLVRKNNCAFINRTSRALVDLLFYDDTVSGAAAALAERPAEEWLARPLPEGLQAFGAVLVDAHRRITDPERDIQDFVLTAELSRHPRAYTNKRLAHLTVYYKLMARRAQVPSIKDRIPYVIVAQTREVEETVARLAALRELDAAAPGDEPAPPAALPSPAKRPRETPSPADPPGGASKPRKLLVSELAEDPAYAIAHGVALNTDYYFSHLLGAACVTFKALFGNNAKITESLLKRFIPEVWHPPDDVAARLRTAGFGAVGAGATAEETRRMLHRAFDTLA
T1 sequence (P08546 whole entry): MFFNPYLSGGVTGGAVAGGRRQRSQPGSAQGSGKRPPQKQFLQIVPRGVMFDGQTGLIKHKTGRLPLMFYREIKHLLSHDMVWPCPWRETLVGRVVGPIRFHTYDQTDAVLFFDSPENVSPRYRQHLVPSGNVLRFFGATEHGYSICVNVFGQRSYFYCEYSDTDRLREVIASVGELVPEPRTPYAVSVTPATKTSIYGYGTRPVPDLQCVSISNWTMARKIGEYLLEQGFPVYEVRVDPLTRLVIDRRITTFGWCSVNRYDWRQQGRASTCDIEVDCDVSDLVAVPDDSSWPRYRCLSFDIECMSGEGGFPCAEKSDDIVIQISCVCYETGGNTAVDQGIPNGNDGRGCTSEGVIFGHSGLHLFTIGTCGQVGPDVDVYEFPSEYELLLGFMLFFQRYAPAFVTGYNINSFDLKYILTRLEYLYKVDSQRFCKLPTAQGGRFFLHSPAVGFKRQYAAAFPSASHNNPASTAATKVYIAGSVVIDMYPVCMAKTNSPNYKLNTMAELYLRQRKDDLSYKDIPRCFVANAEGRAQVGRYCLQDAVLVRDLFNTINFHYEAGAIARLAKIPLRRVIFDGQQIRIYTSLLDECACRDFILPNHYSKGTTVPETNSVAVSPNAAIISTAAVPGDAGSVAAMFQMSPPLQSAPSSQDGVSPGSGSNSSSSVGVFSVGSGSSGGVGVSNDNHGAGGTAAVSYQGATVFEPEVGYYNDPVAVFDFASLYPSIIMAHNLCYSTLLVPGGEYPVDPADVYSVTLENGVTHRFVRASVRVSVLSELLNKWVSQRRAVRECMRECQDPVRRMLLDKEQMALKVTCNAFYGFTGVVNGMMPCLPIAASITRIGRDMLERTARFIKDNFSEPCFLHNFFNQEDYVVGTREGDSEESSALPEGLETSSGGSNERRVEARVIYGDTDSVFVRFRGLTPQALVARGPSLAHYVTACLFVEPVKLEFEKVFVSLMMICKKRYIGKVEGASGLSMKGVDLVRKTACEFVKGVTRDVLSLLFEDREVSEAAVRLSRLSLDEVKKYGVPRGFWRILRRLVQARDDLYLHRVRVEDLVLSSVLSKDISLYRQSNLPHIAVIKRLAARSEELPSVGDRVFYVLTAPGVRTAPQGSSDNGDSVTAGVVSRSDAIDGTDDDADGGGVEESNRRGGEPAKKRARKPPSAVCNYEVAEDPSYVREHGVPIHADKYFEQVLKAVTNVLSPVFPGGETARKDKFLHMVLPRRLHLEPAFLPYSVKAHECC

melting point [°C] | IC50 (HSV polymerase) [µM] | IC50 (HCMV polymerase) [µM] | IC50 (VZV polymerase) [µM] | SMILES
233 to 236 | 0.88 | 2.5 | 0.6 | O=C(NCc1ccc(Cl)cc1)c1cnc2sc(C#CCO)cc2c1O [Example 5, N-(4-Chlorobenzyl)-4-hydroxy-2-(3-hydroxy-1-propynyl)thieno[2,3-b]pyridine-5-carboxamide]
 | 0.95 | 1.7 | 0.39 | CCN(CC)CCn1cc(C(=O)NCc2ccc(Cl)cc2)c(=O)c2cc(C#CCO)sc21 [Example 18, N-(4-Chlorobenzyl)-7-[2-(diethylamino)ethyl]-2-(3hydroxy-1-propynyl)4-oxo4,7-dihydrothieno[2,3-b]pyridine-5-carboxamide hydrochloride]
 | 0.89 | 0.92 | 0.28 | O=C(NCc1ccc(Cl)cc1)c1cn(CCO)c2sc(C#CCO)cc2c1=O [Example 17, N-(4-Chlorobenzyl)-7-(2-hydroxyethyl)-2-(3-hydroxy-1-5 propynyl)-4-oxo-4,7-dihydrothieno[2,3-b]pyridine-5-carboxamide]
185 to 186 | 0.91 | 2.2 | 0.55 | O=C(NCc1ccc(Cl)cc1)c1cnc2sc(CCCO)cc2c1O [Example 8, N-(4-Chlorobenzyl)4-hydroxy-2-(3-hydroxpropyl)thieno[2,3-b]pyridine-5-carboxamide]
